From paper PMC7300003, “Alternative catalytic residues in the active site of Esco acetyltransferases” (Scientific Reports, 2020)

Columns and labels:
MmEsco2^368–592 = molecular target: T1, MmEsco2^368–592 (Mus musculus, UniProt Q8CIB9); assay: X-ray crystallography, […] Å (zinc SAD); assay type: binding; details: natively bound (co-purified) CoA; active-site groove; pH 8 crystallisation
T1 construct: gene Esco2; residues 368-592 (C2H2 zinc finger and acetyltransferase domain), C-terminal His-tag, Hi5 insect cells
T1 sequence (Q8CIB9 368-592): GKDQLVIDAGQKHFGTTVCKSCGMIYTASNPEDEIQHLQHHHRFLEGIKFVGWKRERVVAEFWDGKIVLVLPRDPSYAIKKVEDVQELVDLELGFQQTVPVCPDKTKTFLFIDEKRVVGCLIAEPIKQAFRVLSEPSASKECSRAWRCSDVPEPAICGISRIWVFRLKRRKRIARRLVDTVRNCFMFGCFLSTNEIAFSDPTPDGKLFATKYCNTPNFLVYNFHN

HsESCO1 = molecular target: T2, HsESCO1 (Homo sapiens, UniProt Q5FWF5); assay: SMC3 acetylation time course, anti-acetyl-Smc3 immunoblot; assay type: biochemical; details: 10 µM AcCoA; acceptor human trimeric or tetrameric cohesin (SMC3 K105/K106); ATP, plasmid DNA, 1 mM MgCl2, pH 7.5, 37 °C
T2 construct: gene ESCO1; full-length, N-terminal His-tag, Sf9 insect cells
T2 sequence (Q5FWF5 1-840): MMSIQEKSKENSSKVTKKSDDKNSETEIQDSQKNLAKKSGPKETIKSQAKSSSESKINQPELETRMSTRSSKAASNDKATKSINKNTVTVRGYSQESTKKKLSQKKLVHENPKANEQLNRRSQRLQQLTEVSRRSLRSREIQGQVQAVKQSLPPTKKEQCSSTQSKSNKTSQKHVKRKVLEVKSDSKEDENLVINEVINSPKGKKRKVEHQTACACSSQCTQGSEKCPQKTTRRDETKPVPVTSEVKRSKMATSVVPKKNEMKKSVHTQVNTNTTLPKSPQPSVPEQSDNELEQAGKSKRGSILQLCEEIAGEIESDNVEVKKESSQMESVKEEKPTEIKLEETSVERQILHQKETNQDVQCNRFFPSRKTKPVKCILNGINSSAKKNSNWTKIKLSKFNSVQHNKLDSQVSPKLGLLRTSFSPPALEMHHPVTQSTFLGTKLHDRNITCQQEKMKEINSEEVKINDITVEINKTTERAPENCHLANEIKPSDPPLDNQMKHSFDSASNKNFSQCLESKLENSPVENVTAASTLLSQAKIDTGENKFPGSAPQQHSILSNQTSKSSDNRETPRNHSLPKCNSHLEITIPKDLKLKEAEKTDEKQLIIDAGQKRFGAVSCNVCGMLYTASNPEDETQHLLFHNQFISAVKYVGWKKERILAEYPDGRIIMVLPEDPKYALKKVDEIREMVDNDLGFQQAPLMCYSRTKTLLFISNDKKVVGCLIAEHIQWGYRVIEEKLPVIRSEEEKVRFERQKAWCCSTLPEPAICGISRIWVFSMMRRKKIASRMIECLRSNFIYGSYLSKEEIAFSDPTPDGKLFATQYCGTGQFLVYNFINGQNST

Compound: CC(C)(COP(=O)(O)OP(=O)(O)OC[C@H]1O[C@@H](n2cnc3c(N)ncnc32)[C@H](O)[C@@H]1OP(=O)(O)O)[C@@H](O)C(=O)NCCC(=O)NCCS [CoA]
- X-ray crystallography, 1.8 Å (zinc SAD) (MmEsco2^368–592): The CoA cofactor is natively present in a complex with MmEsco2 in a groove

Compound: CC(=O)SCCNC(=O)CCNC(=O)[C@H](O)C(C)(C)COP(=O)(O)OP(=O)(O)OC[C@H]1O[C@@H](n2cnc3c(N)ncnc32)[C@H](O)[C@@H]1OP(=O)(O)O [AcCoA]
- SMC3 acetylation time course, anti-acetyl-Smc3 immunoblot (HsESCO1): The purified tetrameric cohesin complex was incubated with HsESCO1 and AcCoA
